In patent US20100093733A1, “AMIDE AND UREA DERIVATIVES FOR THE TREATMENT OF METABOLIC DISEASES” (PROSIDION LIMITED, priority 2007, published 2010):

Target: T1, human DGAT1 (Homo sapiens, UniProt O75907)
T1 construct: Full length human DGAT10RF (1467 bp); 6xHis (pFastBac HTa vector leader) (N); made in house; host or cells: Sf21 insect cells (baculovirus); microsome fraction
T1 sequence (O75907 1-488): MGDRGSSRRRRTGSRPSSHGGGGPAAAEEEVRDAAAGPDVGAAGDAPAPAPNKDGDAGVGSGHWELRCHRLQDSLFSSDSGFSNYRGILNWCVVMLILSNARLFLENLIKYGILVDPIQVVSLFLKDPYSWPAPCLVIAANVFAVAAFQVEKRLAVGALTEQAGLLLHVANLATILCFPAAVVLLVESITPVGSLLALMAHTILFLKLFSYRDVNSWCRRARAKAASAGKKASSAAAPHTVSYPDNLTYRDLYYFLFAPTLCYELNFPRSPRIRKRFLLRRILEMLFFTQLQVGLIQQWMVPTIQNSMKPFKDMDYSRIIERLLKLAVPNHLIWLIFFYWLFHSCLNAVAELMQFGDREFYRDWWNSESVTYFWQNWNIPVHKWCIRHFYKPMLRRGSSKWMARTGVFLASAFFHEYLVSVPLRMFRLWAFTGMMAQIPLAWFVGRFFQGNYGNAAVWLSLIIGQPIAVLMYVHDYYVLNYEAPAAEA
Test: Evaluation of DGAT1 enzyme inhibition (14C-oleoyl CoA, TLC of triglyceride)
Format: biochemical
Settings: human DGAT1 microsomes from Sf21 cells, 30° C., 20 min
Procedure: DGAT assays for compound screening were carried out in 96-well round bottom plates in a total volume of 50 μl containing 25 mM Hepes pH 7.4, 150 mM NaCl, 2 mM MgCl2, 20 mM sodium fluoride, 1 mM dithiothreitol, 0.5 mg/mL BSA, 0.1% Triton X100, 200 uM DAG (1,2-dioleoyl-sn-glycerol) and 15 μM [^14C] oleoyl CoA (specific activity 50-60 mCi/mmol) and a range of inhibitor concentrations in 1% DMSO. Reactions were initiated by the addition of human DGAT1 microsomes (0.4 μg/well) followed by incubation at 30° C. for 20 min. At the end of incubation, reactions were stopped by the addition of 5 μl 0.5N HCl, then 4 μl of each reaction was spotted directly onto a silica gel 60 (20×20 cm) TLC plate pre-scored to give twenty 1 cm wide lanes for lipid separation. […]
Following chromatography, the triglyceride spots were cut out and placed in a scintillation vial for counting. The percentage inhibition values were calculated relative to control and where appropriate IC50 values were derived using the 4 parameter logistic model in XL fit.
The enzyme source used for the assay was prepared from Sf21 cells infected with baculovirus expressing human DGAT1. Full length human DGAT10RF (1467 bp) (Nucleotide Accession: NM 012079; Protein Accession: NP036211) was PCR amplified from human liver cDNA (Marathon Ready) and cloned into pFastBac HTa vector (Life Technologies) containing a 6-Histidine N-terminus. […]

Row | SMILES | IC50 [µM]
1 | COC(=O)[C@H]1CC[C@H](c2ccc(NC(=O)c3cc4ccccc4s3)cn2)CC1 [Example 114, Trans-4-{5-[(Benzo[b]thiophene-2-carbonyl)amino]-pyridin-2-yl}-cyclohexane-carboxylic acid methyl ester] | 1.8
2 | COc1ccc(C)cc1NC(=O)Nc1ccc([C@H]2CC[C@](O)(CC(=O)O)CC2)cc1 [Example 137, Syn-(1-Hydroxy-4-{4-[3-(2-methoxy-5-methylphenyl)-ureido]phenyl}-cyclohexyl)-acetic acid] | 1.3
